Assay results from ChEMBL document CHEMBL1127398, “(-)-11-Hydroxy-7'-isothiocyanato-1',1'-dimethylheptyl-delta 8-THC: a novel, high-affinity irreversible probe for the cannabinoid receptor in the brain” (J Med Chem, 1994).

Molecular target: Cannabinoid receptor (Rattus norvegicus, UniProt Q9QZN9+P20272)
Test: Tested for affinity of compound against cannabinoid receptor in rat forebrain membranes
Assay type: cell membranes, Membrane

| Structure (SMILES) | IC50 [µM] |
| --- | --- |
| CC1=CC2c3c(O)cc(CCCCN=[N+]=[N-])cc3OC(C)(C)[C@H]2CC1 (some centres not stated) | 0.031 |
| CCc1cc(C(C)(C)CCCCCCN=C=S)cc2c1[C@@H]1CC(CO)=CC[C@H]1C(C)(C)O2 | 0.0016 |
